How the values were obtained:
Assay in all cases: relative viability (nuclei count vs DMSO), 5 days (fraction); higher = more cells survive
[1] = compound: CC(=O)Nc1cccc(-n2c(=O)n(C3CC3)c(=O)c3c(Nc4ccc(I)cc4F)n(C)c(=O)c(C)c32)c1 [Trametinib] + CS(=O)(=O)N1CCN(Cc2cc3nc(-c4cccc5[nH]ncc45)nc(N4CCOCC4)c3s2)CC1 [Pictilisib] (partner 1 µM)
Procedure, shortened: (§1)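 Values are medians from duplicate plates. Each reflects relative viability, defined as the nuclei count of treated wells over that of vehicle wells. Lung cancer cell lines in 1536-well plates were pin-tool dosed one day after seeding with one drug alone or with a fixed anchor-drug dose plus five library-drug doses (not always all listed) in √10 steps, then fixed, stained and imaged at 4× after 5 days.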

[2] = compound: CN1C=C(C2=CC=CC=C21)/C=C\3/C4=C(C=CC=N4)NC3=O + COc1cccc2cc(-c3nc([C@H]4CC[C@H](C(=O)O)CC4)n4ncnc(N)c34)[nH]c12 [OSI-027] (partner 0.5 µM)
Procedure, shortened: as §1

[3] = compound: CC(=O)Nc1cccc(-n2c(=O)n(C3CC3)c(=O)c3c(Nc4ccc(I)cc4F)n(C)c(=O)c(C)c32)c1 [Trametinib] + C[C@]1(O)C[C@@H](c2nc(-c3ccc4ccc(-c5ccccc5)nc4c3)c3c(N)nccn32)C1 [Linsitinib] (partner 1 µM)
Procedure, shortened: as §1

[4] = compound: CN1C=C(C2=CC=CC=C21)/C=C\3/C4=C(C=CC=N4)NC3=O + Nc1ncn([C@H]2C[C@H](O)[C@@H](CO)O2)c(=O)n1 [Decitabine] (partner 2 µM)
Procedure, shortened: as §1

Row | Cell Line | relative viability ([1]; first compound 0.0025 µM) | relative viability ([1]; first compound 0.007906 µM) | relative viability ([1]; first compound 0.07906 µM) | relative viability ([1]; first compound 0.25 µM) | relative viability ([2]; first compound 0.02 µM) | relative viability ([2]; first compound 0.06325 µM) | relative viability ([2]; first compound 0.6325 µM) | relative viability ([2]; first compound 2 µM) | relative viability ([3]; first compound 0.0025 µM) | relative viability ([3]; first compound 0.007906 µM) | relative viability ([3]; first compound 0.07906 µM) | relative viability ([3]; first compound 0.25 µM) | relative viability ([4]; first compound 0.02 µM) | relative viability ([4]; first compound 0.06325 µM) | relative viability ([4]; first compound 0.2 µM) | relative viability ([4]; first compound 0.6325 µM) | relative viability ([4]; first compound 2 µM) | relative viability ([1]; first compound 0.025 µM) | relative viability ([3]; first compound 0.025 µM) | relative viability ([2]; first compound 0.2 µM)
1 | BEN | 0.487 | 0.472 | 0.419 | 0.426 | 0.282 | 0.29 | 0.403 | 0.276 | 0.81 | 0.762 | 0.687 | 0.882 | 0.691 | 0.634 | 0.513 | 0.623 | 0.781 | – | – | –
2 | NCI-H3122 | 0.287 | 0.24 | 0.189 | 0.175 | 0.879 | 0.9 | 1.18 | 1.4 | 0.938 | 0.734 | 0.329 | 0.295 | 0.407 | 0.445 | 0.38 | 0.496 | 0.507 | 0.197 | 0.429 | –
3 | LCLC-97TM1 | 0.141 | 0.135 | 0.128 | 0.0971 | 0.372 | 0.447 | 0.476 | 0.482 | 0.185 | 0.195 | 0.133 | 0.119 | – | 0.189 | 0.205 | 0.208 | 0.241 | 0.11 | 0.147 | 0.542
4 | COR-L23 | 0.72 | 0.756 | 0.439 | 0.308 | 0.713 | 0.716 | 0.723 | 0.843 | 0.874 | 0.851 | 0.639 | 0.306 | 0.446 | 0.372 | 0.403 | 0.408 | 0.435 | 0.555 | 0.827 | 0.829
5 | EMC-BAC-2 | 0.517 | 0.429 | 0.423 | 0.331 | 0.388 | 0.384 | 0.405 | 0.362 | 0.744 | 0.754 | 0.674 | 0.537 | 0.925 | 0.926 | 1.01 | 0.99 | 1.04 | 0.379 | 0.634 | 0.391
6 | NCI-H1944 | 0.333 | 0.307 | 0.278 | 0.262 | 0.433 | 0.368 | 0.423 | 0.351 | 1.08 | 0.79 | 0.606 | 0.428 | 0.423 | 0.419 | – | 0.415 | 0.416 | 0.253 | 0.643 | –
7 | A-427 | 0.632 | 0.426 | 0.184 | 0.164 | 0.575 | 0.445 | 0.549 | 0.416 | 1.11 | 1.14 | 0.825 | 0.432 | 0.632 | 0.479 | – | 0.557 | 0.651 | 0.2 | 0.631 | –
8 | NCI-H520 | 0.294 | 0.292 | 0.195 | 0.217 | 0.199 | 0.223 | 0.275 | 0.266 | 0.947 | 1.02 | 0.905 | 0.664 | 0.46 | 0.492 | 0.536 | 0.473 | 0.52 | 0.259 | 1.02 | 0.289
9 | NCI-H650 | 1.05 | 1.18 | 0.919 | 0.565 | 0.628 | 0.515 | 0.529 | 0.506 | 1.08 | 0.93 | 0.787 | 0.456 | 0.316 | 0.338 | – | 0.293 | 0.188 | 0.998 | 0.861 | –
10 | COR-L 105 | 0.311 | 0.343 | 0.31 | 0.315 | 1.01 | 0.897 | 0.746 | 0.724 | 0.788 | 0.754 | 0.394 | 0.367 | 0.633 | 0.745 | 0.63 | 0.68 | 0.64 | 0.303 | 0.49 | 0.591
11 | NCI-H1755 | 0.396 | 0.348 | 0.331 | 0.228 | 0.619 | 0.654 | 0.683 | 0.644 | 0.847 | 0.82 | 0.847 | 0.801 | 0.668 | 0.758 | 0.674 | 0.675 | 0.691 | 0.248 | 0.764 | 0.655
12 | NCI-H2085 | 0.412 | 0.353 | 0.327 | 0.32 | 0.897 | 0.717 | 0.716 | 0.67 | 0.812 | 0.688 | 0.728 | 0.737 | 0.523 | 0.494 | 0.559 | 0.491 | 0.525 | 0.418 | 0.607 | 0.597
13 | NCI-H2023 | 0.213 | 0.141 | 0.175 | 0.143 | 0.395 | 0.351 | 0.337 | 0.316 | 0.549 | 0.47 | 0.424 | 0.217 | 0.245 | 0.215 | 0.193 | 0.229 | 0.245 | 0.137 | 0.45 | 0.231
14 | HOP-62 | 0.597 | 0.229 | 0.133 | 0.0772 | 0.712 | 0.873 | 0.875 | 0.846 | 1.06 | 0.921 | 0.487 | 0.152 | 0.184 | 0.206 | – | 0.188 | 0.241 | 0.128 | 0.705 | 0.645

Source: the supplement of paper PMC10307832
